# Laboratory results reported in patent US20150079176A1, “ANTI-OXIDANT SYNERGY FORMULATION NANOEMULSIONS TO TREAT CANCER” (University of Massachusetts Lowell, priority 2005, published 2015).
# Assays:
# MCF-7 = MCF-7 cell culture growth (Coulter Counter cell counting); format: cell-based, Human
# Method: (§1) Human breast cancer cell lines MCF-7 and HTB-20 were subcultured in flasks accompanied by daily changes of medium comprising RPMI 1640 supplemented with fetal bovine serum (10%, v/v). The cultures were maintained in a humidified chamber at 37° C. with 5% CO2 and 95% air. The cells were harvested at confluency by trypsinzation and suspended at a cell density of 200,000 to 300,000 cells/ml in a small volume of the growth medium to be used.
# (§2) In a typical experiment in which the effects of the anti-cancer nanoemulsions on cell growth were to be examined, aliquots of the cell suspension containing about 20,000 to 30,000 cells were replicately plated in dishes containing 3 ml of the growth medium consisting of RPMI 1640 supplemented with charcoal-stripped fetal bovine serum (5%, v/v) and of penicillin-streptomycin (10 units and 10 μg, respectively) and mycostatin (2.5 units/ml) and incubated at 37° C. in the humidified chamber. On day 1 when the cell adhered firmly to the bottom surface of the dishes, the medium was aspirated off and the cells then challenged by the anti-cancer nanoemulsions; groups of replicate dishes received 3 ml of fresh growth medium containing either ASF or tamoxifen at the indicated concentrations. The control groups received only the microfluidized nanoemulsion and ASF or tamoxifen in free solution.
# (§3) At various time intervals (i.e., Days 1-17), triplicate dishes were withdrawn for cell counting; after removal of the medium by aspiration, the adhered cells were washed twice with 1 ml of Eagles balanced salt solution without Ca^2+ and Mg^2+ and dislodged from the dish by trypsinization involving the incubation of 0.5 ml of trypsin-EDTA solution (IX) for 5 minutes at 37° C., after which the protease reaction was stopped by adding 2.5 ml of a “stop” medium consisting of RPMI 1640 and 5% fetal calf serum. The cells were then collected by centrifugation with subsequent suspension in the medium. An aliquot of the suspension was subjected to cell counting using a Coulter Counter (data expressed as 10^6 cells per dish).
# HTB-20 = HTB-20 cell culture growth (Coulter Counter cell counting); format: cell-based, Human
# Method: as §1, §2, §3
structure (smiles),measurement,setting,value
"CC/C(=C(\c1ccccc1)c1ccc(OCCN(C)C)cc1)c1ccccc1 [Tamoxifen In Free Solution, tamoxifen]",cell count,"MCF-7; MCF-7, 5 days of incubation",5 106 cells per dish
same,cell count,"MCF-7; MCF-7, 8 days of incubation",19 106 cells per dish
same,cell count,"MCF-7; MCF-7, 10 days of incubation",25 106 cells per dish
same,cell count,"MCF-7; MCF-7, 12 days of incubation",33 106 cells per dish
same,cell count,"MCF-7; MCF-7, 15 days of incubation",50 106 cells per dish
same,cell count,"MCF-7; MCF-7, 17 days of incubation",67.5 106 cells per dish
same,improvement of time-course of tamoxifen-induced apoptosis,"MCF-7; MCF-7, applied as a microfluidized nanoemulsion vs free solution",2-10 fold
same,cell count,"HTB-20; HTB-20, 1 day of incubation",4 106 cells per dish
same,cell count,"HTB-20; HTB-20, 3 days of incubation",12 106 cells per dish
same,cell count,"HTB-20; HTB-20, 5 days of incubation",24 106 cells per dish
same,cell count,"HTB-20; HTB-20, 7 days of incubation",28 106 cells per dish
same,cell count,"HTB-20; HTB-20, 10 days of incubation",41 106 cells per dish
same,cell count,"HTB-20; HTB-20, 12 days of incubation",51 106 cells per dish
same,improvement of time-course of tamoxifen-induced apoptosis,"HTB-20; HTB-20, applied as a microfluidized nanoemulsion vs free solution",2-10 fold
